Earlier results in patent US20040213859A1, “Organic nutrient for hair loss treatment” (priority 1999, published 2004).

Tests used:
[1] = molecular target: T1, type II 5-alpha-reductase (Homo sapiens, UniProt P31213); conditions: by inhibiting conversion of testosterone to DHT
T1 construct: host or cells: scalp (in vivo, treated individuals)
T1 sequence (P31213 1-254): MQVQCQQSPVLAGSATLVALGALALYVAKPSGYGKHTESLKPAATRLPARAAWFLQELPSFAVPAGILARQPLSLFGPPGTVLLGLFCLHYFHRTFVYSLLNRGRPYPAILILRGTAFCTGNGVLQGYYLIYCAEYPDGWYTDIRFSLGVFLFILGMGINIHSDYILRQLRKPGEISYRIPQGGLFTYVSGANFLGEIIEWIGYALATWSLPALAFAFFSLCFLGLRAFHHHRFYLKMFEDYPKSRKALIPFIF

adrogenetic alopecia = conditions: oral administration

CC(C)(C)NC(=O)[C@H]1CC[C@H]2[C@@H]3CC[C@H]4NC(=O)C=C[C@]4(C)[C@H]3CC[C@]12C [Finisteride]
scalp DHT (dihydrotestosterone) [1]: effective in decreasing scalp DHT
hair loss, hair growth and appearance of hair (adrogenetic alopecia): slowed hair loss, increased hair growth and improved the appearance of hair
